# Measured values from US7846655B2, “Compositions and methods for detecting a non plus-stranded RNA virus” (priority 2003, dated 2010).
# Where two headings read alike, the source gives them in different places.
# Tests used:
# SARS-coronavirus = settings: Yount et al. PNAS 100:12995-13000 (2003); cited from earlier work
# adenovirus = format: cell-based; settings: Adeno, 24 hours, control 863 ± 100
# influenza A = format: cell-based; settings: FluA, 24 hours, control 189 ± 012
# parainfluenza 3 = format: cell-based; settings: Para3, 24 hours, control 142 ± 014
# RSV = format: cell-based; settings: 24 hours, control 116 ± 012
# parainfluenza 1 = format: cell-based; settings: Para1, 24 hours, control 245 ± 018
# parainfluenza 2 = format: cell-based; settings: Para2, 24 hours, control 243 ± 012
# influenza B = format: cell-based; settings: FluB, 24 hours, control 455 ± 022
# human coronavirus 229E = test: Replication of human coronavirus 229E (inventors' data, E64); format: cell-based; settings: no conditions given
# [1] = Glycycrrhizin 0.152 micrograms/ml
# [2] = Glycycrrhizin 1.216 micrograms/ml
# [3] = Glycycrrhizin 6.08 micrograms/ml
smiles,measurement,setting,value
"CCOC(=O)[C@H]1O[C@@H]1C(=O)N[C@@H](CC(C)C)C(=O)NCCC(C)C [(2S,3S)transepoxysuccinyl-L-leucylamido-3-methylbutane ethyl ester]",replication of SARS-coronavirus,SARS-coronavirus,inhibition in replication
CCCCC[C@H](CC(=O)NO)C(=O)N[C@H](C(=O)N1CCC[C@H]1CO)C(C)C [Actinonin],Number of Infected Foci In R-Mix Cell Cultures,adenovirus; Actinonin 10 micrograms/ml,781
same,Number of Infected Foci In R-Mix Cell Cultures,adenovirus; Actinonin 20 micrograms/ml,383
same,Number of Infected Foci In R-Mix Cell Cultures,adenovirus; Actinonin 40 micrograms/ml,147
same,Number of Infected Foci In R-Mix Cell Cultures,influenza A; Actinonin 10 micrograms/ml,171
same,Number of Infected Foci In R-Mix Cell Cultures,influenza A; Actinonin 20 micrograms/ml,122
same,Number of Infected Foci In R-Mix Cell Cultures,influenza A; Actinonin 40 micrograms/ml,118
same,Number of Infected Foci In R-Mix Cell Cultures,parainfluenza 3; Actinonin 10 micrograms/ml,115
same,Number of Infected Foci In R-Mix Cell Cultures,parainfluenza 3; Actinonin 20 micrograms/ml,104
same,Number of Infected Foci In R-Mix Cell Cultures,parainfluenza 3; Actinonin 40 micrograms/ml,75
same,Number of Infected Foci In R-Mix Cell Cultures,RSV; Actinonin 10 micrograms/ml,103
same,Number of Infected Foci In R-Mix Cell Cultures,RSV; Actinonin 20 micrograms/ml,64
same,Number of Infected Foci In R-Mix Cell Cultures,RSV; Actinonin 40 micrograms/ml,41
same,Number of Infected Foci In R-Mix Cell Cultures,parainfluenza 1; Actinonin 10 micrograms/ml,222
same,Number of Infected Foci In R-Mix Cell Cultures,parainfluenza 1; Actinonin 20 micrograms/ml,191
same,Number of Infected Foci In R-Mix Cell Cultures,parainfluenza 1; Actinonin 40 micrograms/ml,160
same,Number of Infected Foci In R-Mix Cell Cultures,parainfluenza 2; Actinonin 10 micrograms/ml,220
same,Number of Infected Foci In R-Mix Cell Cultures,parainfluenza 2; Actinonin 20 micrograms/ml,196
same,Number of Infected Foci In R-Mix Cell Cultures,parainfluenza 2; Actinonin 40 micrograms/ml,151
same,Number of Infected Foci In R-Mix Cell Cultures,influenza B; Actinonin 10 micrograms/ml,317
same,Number of Infected Foci In R-Mix Cell Cultures,influenza B; Actinonin 20 micrograms/ml,260
same,Number of Infected Foci In R-Mix Cell Cultures,influenza B; Actinonin 40 micrograms/ml,190
"CC(C)C[C@H](NC(=O)[C@H]1O[C@@H]1C(=O)O)C(=O)NCCCCN=C(N)N (relative stereo) [E64, trans-Epoxysuccinyl-L-leucylamido-(4-guanidino)butane]",Number of Infected Foci In R-Mix Cell Cultures,adenovirus; E64 0.5 micrograms/ml,904
same,Number of Infected Foci In R-Mix Cell Cultures,adenovirus; E64 5 micrograms/ml,868
same,Number of Infected Foci In R-Mix Cell Cultures,adenovirus; E64 10 micrograms/ml,865
same,Number of Infected Foci In R-Mix Cell Cultures,influenza A; E64 0.5 micrograms/ml,174
same,Number of Infected Foci In R-Mix Cell Cultures,influenza A; E64 5 micrograms/ml,179
same,Number of Infected Foci In R-Mix Cell Cultures,influenza A; E64 10 micrograms/ml,176
same,Number of Infected Foci In R-Mix Cell Cultures,parainfluenza 3; E64 0.5 micrograms/ml,127
same,Number of Infected Foci In R-Mix Cell Cultures,parainfluenza 3; E64 5 micrograms/ml,99
same,Number of Infected Foci In R-Mix Cell Cultures,RSV; E64 0.5 micrograms/ml,107
same,Number of Infected Foci In R-Mix Cell Cultures,RSV; E64 5 micrograms/ml,115
same,Number of Infected Foci In R-Mix Cell Cultures,RSV; E64 10 micrograms/ml,103
same,Number of Infected Foci In R-Mix Cell Cultures,parainfluenza 1; E64 0.5 micrograms/ml,251
same,Number of Infected Foci In R-Mix Cell Cultures,parainfluenza 1; E64 5 micrograms/ml,243
same,Number of Infected Foci In R-Mix Cell Cultures,parainfluenza 1; E64 10 micrograms/ml,207
same,Number of Infected Foci In R-Mix Cell Cultures,parainfluenza 2; E64 0.5 micrograms/ml,223
same,Number of Infected Foci In R-Mix Cell Cultures,parainfluenza 2; E64 5 micrograms/ml,221
same,Number of Infected Foci In R-Mix Cell Cultures,parainfluenza 2; E64 10 micrograms/ml,205
same,replication of human coronavirus 229E,human coronavirus 229E,inhibition in replication
same,Number of Infected Foci In R-Mix Cell Cultures,influenza B; E64 0.5 micrograms/ml,398
same,Number of Infected Foci In R-Mix Cell Cultures,influenza B; E64 5 micrograms/ml,328
same,Number of Infected Foci In R-Mix Cell Cultures,influenza B; E64 10 micrograms/ml,323
"CC1(C)[C@@H](O[C@H]2O[C@H](C(=O)O)[C@@H](O)[C@H](O)[C@H]2O[C@@H]2O[C@H](C(=O)O)[C@@H](O)[C@H](O)[C@H]2O)CC[C@]2(C)[C@H]3C(=O)C=C4[C@@H]5C[C@@](C)(C(=O)O)CC[C@]5(C)CC[C@@]4(C)[C@]3(C)CC[C@@H]12 [Glycycrrhizin, Glycyrrhizin]",Number of Infected Foci In R-Mix Cell Cultures,adenovirus; [1],766
same,Number of Infected Foci In R-Mix Cell Cultures,adenovirus; [2],938
same,Number of Infected Foci In R-Mix Cell Cultures,adenovirus; [3],1061
same,Number of Infected Foci In R-Mix Cell Cultures,influenza A; [1],218
same,Number of Infected Foci In R-Mix Cell Cultures,influenza A; [2],175
same,Number of Infected Foci In R-Mix Cell Cultures,influenza A; [3],163
same,Number of Infected Foci In R-Mix Cell Cultures,parainfluenza 3; [1],138
same,Number of Infected Foci In R-Mix Cell Cultures,parainfluenza 3; [2],149
same,Number of Infected Foci In R-Mix Cell Cultures,parainfluenza 3; [3],138
same,Number of Infected Foci In R-Mix Cell Cultures,RSV; [1],130
same,Number of Infected Foci In R-Mix Cell Cultures,RSV; [2],103
same,Number of Infected Foci In R-Mix Cell Cultures,RSV; [3],53
same,Number of Infected Foci In R-Mix Cell Cultures,parainfluenza 1; [1],268
same,Number of Infected Foci In R-Mix Cell Cultures,parainfluenza 1; [2],233
same,Number of Infected Foci In R-Mix Cell Cultures,parainfluenza 1; [3],295
same,Number of Infected Foci In R-Mix Cell Cultures,parainfluenza 2; [1],265
same,Number of Infected Foci In R-Mix Cell Cultures,parainfluenza 2; [2],257
same,Number of Infected Foci In R-Mix Cell Cultures,parainfluenza 2; [3],281
same,Number of Infected Foci In R-Mix Cell Cultures,influenza B; [1],426
same,Number of Infected Foci In R-Mix Cell Cultures,influenza B; [2],402
same,Number of Infected Foci In R-Mix Cell Cultures,influenza B; [3],273
